Assays:
Plasmodium berghei [1] = assay: Antimalarial activity against GFP-transfected Plasmodium berghei strain ANKA infected in NMRI mouse assessed as increase in mean survival time at 50 mg/kg, po administered as single dose (reference value: 5 days )
[2] = Metabolic stability in human liver microsomes assessed as intrinsic clearance per mg protein after 60 mins by LC-MS analysis; assay type: ADME, Microsome
Rattus norvegicus [3] = assay: AUC (0 to tlast) in fasted Sprague-Dawley rat assessed as 1-(2-Ethylaminoethylamino)-3-[4-(trifluoromethyl)phenyl]- pyrido[1,2-a]benzimidazole-4-carbonitrile level at 20 mg/kg, po after 48 hrs by LC-MS analysis; assay type: ADME, organism-based, Plasma; parameters: time < 48 hr, dose 20 mg/kg, route oral; conditions: in vivo
Plasmodium berghei [4] = assay: Antimalarial activity against GFP-transfected Plasmodium berghei strain ANKA infected in NMRI mouse assessed as reduction in parasitemia at 25 mg/kg, po administered as single dose for 4 days measured 24 hrs after last treatment; assay type: functional; parameters: scale not given: the % may be the effect or the level left
[5] = Metabolic stability in human liver microsomes assessed as degradation half life after 60 mins by LC-MS analysis; assay type: ADME, Microsome
Plasmodium berghei [6] = assay: Antimalarial activity against GFP-transfected Plasmodium berghei strain ANKA infected in NMRI mouse assessed as reduction in parasitemia at 3 mg/kg, po administered as multiple dose for 4 days measured 24 hrs after last treatment; assay type: functional; parameters: scale not given: the % may be the effect or the level left
Plasmodium berghei [7] = assay: Antimalarial activity against GFP-transfected Plasmodium berghei strain ANKA infected in NMRI mouse assessed as increase in median survival time at 50 mg/kg, po administered as multiple dose for 4 days measured 24 hrs after last treatment (reference value: 6.5 days ); assay type: functional
Plasmodium berghei [8] = assay: Antimalarial activity against GFP-transfected Plasmodium berghei strain ANKA infected in NMRI mouse assessed as reduction in parasitemia at 50 mg/kg, po administered as multiple dose for 4 days measured 24 hrs after last treatment; assay type: functional; parameters: scale not given: the % may be the effect or the level left
Plasmodium berghei [9] = assay: Antimalarial activity against GFP-transfected Plasmodium berghei strain ANKA infected in NMRI mouse assessed as increase in median survival time at 25 mg/kg, po administered as multiple dose for 4 days measured 24 hrs after last treatment (reference value: 6.5 days ); assay type: functional
Rattus norvegicus [10] = assay: Cmax in fasted Sprague-Dawley rat assessed as 1-(2-Ethylaminoethylamino)-3-[4-(trifluoromethyl)phenyl]- pyrido[1,2-a]benzimidazole-4-carbonitrile level at 20 mg/kg, po after 48 hrs by LC-MS analysis; assay type: ADME, organism-based; parameters: dose 20 mg/kg, route oral; conditions: in vivo
Plasmodium berghei [11] = assay: Antimalarial activity against GFP-transfected Plasmodium berghei strain ANKA infected in NMRI mouse assessed as increase in mean survival time at 25 mg/kg, po administered as single dose (reference value: 5 days )
Rattus norvegicus [12] = assay: Drug excretion in fasted Sprague-Dawley rat urine assessed as 1-(2-Ethylaminoethylamino)-3-[4-(trifluoromethyl)phenyl]- pyrido[1,2-a]benzimidazole-4-carbonitrile level at 20 mg/kg, po after 48 hrs by LC-MS analysis; assay type: ADME, organism-based; parameters: dose 20 mg/kg, route oral; conditions: in vivo
Rattus norvegicus [13] = assay: AUC (0 to tlast) in fasted Sprague-Dawley rat assessed as 1-(2-Ethylaminoethylamino)-3-[4-(trifluoromethyl)phenyl]- pyrido[1,2-a]benzimidazole-4-carbonitrile level at 5 mg/kg, iv after 48 hrs by LC-MS analysis; assay type: ADME, organism-based, Plasma; parameters: time < 48 hr, dose 5 mg/kg, route intravenous; conditions: in vivo
Rattus norvegicus [14] = assay: Apparent volume of distribution in fasted Sprague-Dawley rat plasma assessed as 1-(2-Ethylaminoethylamino)-3-[4-(trifluoromethyl)phenyl]- pyrido[1,2-a]benzimidazole-4-carbonitrile level at 5 mg/kg, iv after 48 hrs by LC-MS analysis; conditions: in vivo
Plasmodium berghei [15] = assay: Antimalarial activity against GFP-transfected Plasmodium berghei strain ANKA infected in NMRI mouse assessed as reduction in parasitemia at 25 mg/kg, po administered as single dose measured on day 3 by FACS analysis; assay type: functional; parameters: scale not given: the % may be the effect or the level left
[16] = Metabolic stability in mouse liver microsomes assessed as degradation half life after 60 mins by LC-MS analysis; assay type: ADME, Microsome
Plasmodium berghei [17] = assay: Antimalarial activity against GFP-transfected Plasmodium berghei strain ANKA infected in NMRI mouse assessed as reduction in parasitemia at 6 mg/kg, po administered as single dose for 4 days measured 24 hrs after last treatment; assay type: functional; parameters: scale not given: the % may be the effect or the level left
Plasmodium berghei [18] = assay: Antimalarial activity against GFP-transfected Plasmodium berghei strain ANKA infected in NMRI mouse assessed as increase in median survival time at 12.5 mg/kg, po administered as multiple dose for 4 days measured 24 hrs after last treatment (reference value: 6.5 days ); assay type: functional
Plasmodium berghei [19] = assay: Antimalarial activity against GFP-transfected Plasmodium berghei strain ANKA infected in NMRI mouse assessed as reduction in parasitemia at 25 mg/kg, po administered as single dose measured on day 2 by FACS analysis; assay type: functional; parameters: scale not given: the % may be the effect or the level left
Plasmodium berghei [20] = assay: Antimalarial activity against GFP-transfected Plasmodium berghei strain ANKA infected in NMRI mouse assessed as reduction in parasitemia at 25 mg/kg, po administered as single dose measured on day 5 by FACS analysis; assay type: functional; parameters: scale not given: the % may be the effect or the level left
Plasmodium berghei [21] = assay: Antimalarial activity against GFP-transfected Plasmodium berghei strain ANKA infected in NMRI mouse assessed as reduction in parasitemia at 50 mg/kg, po administered as single dose measured on day 2 by FACS analysis; assay type: functional; parameters: scale not given: the % may be the effect or the level left
Plasmodium berghei [22] = assay: Antimalarial activity against GFP-transfected Plasmodium berghei strain ANKA infected in NMRI mouse assessed as reduction in parasitemia at 25 mg/kg, po administered as single dose measured on day 4 by FACS analysis; assay type: functional; parameters: scale not given: the % may be the effect or the level left
[23] = Metabolic stability in rat liver microsomes assessed as intrinsic clearance per mg protein after 60 mins by LC-MS analysis; assay type: ADME, Microsome
Plasma [24] = assay: Plasma protein binding in mouse assessed as 1-(2-Ethylaminoethylamino)-3-[4-(trifluoromethyl)phenyl]-pyrido[1,2-a]benzimidazole-4-carbonitrile at 5 mg/kg, iv after 48 hrs by LC-MS analysis; assay type: ADME, organism-based; parameters: dose 5 mg/kg, route intravenous; conditions: in vivo
Plasma [25] = assay: Plasma protein binding in human assessed as 1-(2-Ethylaminoethylamino)-3-[4-(trifluoromethyl)phenyl]-pyrido[1,2-a]benzimidazole-4-carbonitrile at 5 mg/kg, iv after 48 hrs by LC-MS analysis; assay type: ADME, organism-based; parameters: dose 5 mg/kg, route intravenous; conditions: in vivo
Rattus norvegicus [26] = assay: Tmax in fasted Sprague-Dawley rat assessed as 1-(2-Ethylaminoethylamino)-3-[4-(trifluoromethyl)phenyl]- pyrido[1,2-a]benzimidazole-4-carbonitrile level at 20 mg/kg, po after 48 hrs by LC-MS analysis; assay type: ADME, organism-based; parameters: dose 20 mg/kg, route oral; conditions: in vivo
Plasmodium berghei [27] = assay: Antimalarial activity against GFP-transfected Plasmodium berghei strain ANKA infected in NMRI mouse assessed as increase in median survival time at 6 mg/kg, po administered as multiple dose for 4 days measured 24 hrs after last treatment (reference value: 6.5 days ); assay type: functional
Plasmodium berghei [28] = assay: Antimalarial activity against GFP-transfected Plasmodium berghei strain ANKA infected in NMRI mouse assessed as reduction in parasitemia at 50 mg/kg, po administered as single dose measured on day 5 by FACS analysis; assay type: functional; parameters: scale not given: the % may be the effect or the level left
Rattus norvegicus [29] = assay: Apparent half life in fasted Sprague-Dawley rat assessed as 1-(2-Ethylaminoethylamino)-3-[4-(trifluoromethyl)phenyl]- pyrido[1,2-a]benzimidazole-4-carbonitrile level at 5 mg/kg, iv after 48 hrs by LC-MS analysis; assay type: ADME, organism-based; parameters: dose 5 mg/kg, route intravenous; conditions: in vivo
Plasmodium berghei [30] = assay: Antimalarial activity against GFP-transfected Plasmodium berghei strain ANKA infected in NMRI mouse assessed as reduction in parasitemia at 12.5 mg/kg, po administered as multiple dose for 4 days measured 24 hrs after last treatment; assay type: functional; parameters: scale not given: the % may be the effect or the level left
Plasmodium berghei [31] = assay: Antimalarial activity against GFP-transfected Plasmodium berghei strain ANKA infected in NMRI mouse assessed as reduction in parasitemia at 50 mg/kg, po administered as single dose measured on day 3 by FACS analysis; assay type: functional; parameters: scale not given: the % may be the effect or the level left
[32] = Metabolic stability in mouse liver microsomes assessed as intrinsic clearance per mg protein after 60 mins by LC-MS analysis; assay type: ADME, Microsome
[33] = Metabolic stability in rat liver microsomes assessed as degradation half life after 60 mins by LC-MS analysis; assay type: ADME, Microsome
Plasmodium berghei [34] = assay: Antimalarial activity against GFP-transfected Plasmodium berghei strain ANKA infected in NMRI mouse assessed as reduction in parasitemia at 50 mg/kg, po administered as single dose measured on day 4 by FACS analysis; assay type: functional; parameters: scale not given: the % may be the effect or the level left
Rattus norvegicus [35] = assay: Drug excretion in fasted Sprague-Dawley rat urine assessed as 1-(2-Ethylaminoethylamino)-3-[4-(trifluoromethyl)phenyl]- pyrido[1,2-a]benzimidazole-4-carbonitrile level at 5 mg/kg, iv after 48 hrs by LC-MS analysis; assay type: ADME, organism-based; parameters: dose 5 mg/kg, route intravenous; conditions: in vivo
Plasmodium berghei [36] = assay: Antimalarial activity against GFP-transfected Plasmodium berghei strain ANKA infected in NMRI mouse assessed as increase in median survival time at 3 mg/kg, po administered as single dose for 4 days measured 24 hrs after last treatment (reference value: 6.5 days ); assay type: functional

CCNCCNc1cc(-c2ccc(C(F)(F)F)cc2)c(C#N)c2nc3ccccc3n12.Cl.Cl
MSD (Plasmodium berghei [1]): 12.7 days
microsomal CLint [2]: 12.7 µL/min/mg
AUClast (Rattus norvegicus [3]): 2076 µM·min
Activity (Plasmodium berghei [4]): 95.72%
half-life [5]: 2.28 h
Activity (Plasmodium berghei [6]): 0%
Activity (Plasmodium berghei [7]): 14 days
Activity (Plasmodium berghei [8]): 95.56%
Activity (Plasmodium berghei [9]): 14.3 days
Cmax (Rattus norvegicus [10]): 950 nM
MSD (Plasmodium berghei [11]): 13.3 days
Activity (Rattus norvegicus [12]): 0.21%
AUClast (Rattus norvegicus [13]): 1000 µM·min
Vz (Rattus norvegicus [14]): 7.5 L/kg
Activity (Plasmodium berghei [15]): 55.45%
half-life [16]: 5.35 h
Activity (Plasmodium berghei [17]): 38.35%
Activity (Plasmodium berghei [18]): 14 days
Activity (Plasmodium berghei [19]): 23.51%
Activity (Plasmodium berghei [20]): 68.92%
Activity (Plasmodium berghei [21]): 30.78%
Activity (Plasmodium berghei [22]): 62.25%
microsomal CLint [23]: 6.1 µL/min/mg
PPB (Plasma [24]): 95.3%
PPB (Plasma [25]): 98.3%
Tmax (Rattus norvegicus [26]): 16 h
Activity (Plasmodium berghei [27]): 7 days
Activity (Plasmodium berghei [28]): 79.79%
t1/2(app) (Rattus norvegicus [29]): 16.3 h
Activity (Plasmodium berghei [30]): 80.73%
Activity (Plasmodium berghei [31]): 50.24%
microsomal CLint [32]: 5.4 µL/min/mg
half-life [33]: 4.74 h
Activity (Plasmodium berghei [34]): 71.22%
Activity (Rattus norvegicus [35]): 1.13%
MSD (Plasmodium berghei [36]): 4 days

Source: ChEMBL document CHEMBL1799932, “Antimalarial pyrido[1,2-a]benzimidazoles” (J Med Chem, 2011)
